{"source": "patent US7122173B2", "about": "“Agent for the treatment of bladder irritative symptoms accompanied by benign prostatic hyperplasia” (Kyowa Hakko Kogyo Co., Ltd., priority 2001, dated 2006)", "tested_on": "slowly-inactivating A-type K^+ channel", "test": "Voltage clamp, slowly-inactivating A-type K+ currents (HP −90 mV) in unidentified DRG neurons", "assay_type": "cell-based, rat", "details": "for K+ current HP: −90 mV (slowly-inactivating A-type), relative value (before drug = 1): unidentified DRG neurons", "method": "Experiments were performed on adult female Sprague Dawley rats. First and second series of the experiments were performed, respectively, in unidentified DRG neurons and a specific population of DRG neurons innervating the urinary bladder. The population of DRG neurons that innervate the urinary bladder were labeled by retrograde axonal transport of the fluorescent dye, Fast Blue (4% w/v) (Polyloy, Gross Umstadt, Germany), injected into the wall of the bladder in halothane-anesthetized animals 7 days before the dissociation. The dye was injected with a 28 gauge needle at three to six sites on the dorsal surface of the organ (5–6 μL per site, total volume of 20–30 μL). Each injection site was washed with saline to minimize contamination of adjacent organs with the dye.\nFreshly dissociated neurons from DRG were prepared from halothane-anesthetized animals. L6 and S1 DRG were dissected from animals and then dissociated in a shaking bath for 25 minutes at 35° C. with 5 mL DMEM (Sigma) containing 0.3 mg/mL trypsin (Type 3, Sigma), 1 mg/mL collagenase (Type 1, Sigma), and 0.1 mg/mL deoxyribonuclease (Type 4, Sigma). Trypsin inhibitor (Type 2a, Sigma) was then added thereto to neutralize the activity of trypsin. Individual DRG cell bodies were isolated by trituration and then plated on a poly-L-lysine-coated 35 mm Petri dishes.\nDye-labeled primary afferent neurons that innervate the urinary bladder were identified using an inverted phase-contrast microscope (Nikon, Tokyo, Japan) with fluorescent attachments (UV-1A filter; excitation wavelength, 365 nm). Gigaohm-seal whole-cell recordings were performed at room temperature (20–22° C.) on each labeled neuron in a culture dish that usually contained three to seven labeled cells among a few hundred unlabeled neurons. The internal solution contained (in mmol/L): KCl 140, CaCl2 1, MgCl2 2, EGTA 11, HEPES 10, Mg-ATP 2, and Tris-GTP 0.4 adjusted to pH 7.4 with KOH. Patch electrodes had resistances of 1–4 M Ω when filled with the internal solution. Neurons were superfused at a flow rate of 1.5 mL/minutes with an external solution containing (in mmol/L): NaCl 150, KCl 5, CaCl2 2.5, MgCl2 1, HEPES 10, and D-glucose 10, adjusted to pH 7.4 with NaOH. All recordings were made with an Axopatch-1D patch-clamp amplifier (Axon Instruments, Foster City, Calif.), and data were acquired and analyzed by PCLAMP software (Axon Instruments).\nIn voltage-clamp recordings, outward K^+ currents and inward Na^+ currents were measured. For the isolation of K^+ currents, the external solution was changed to one containing (in mmol/L): choline-Cl 150, KOH 5, CaCl2 0.03, HEPES 10, Mg(OH)2 3, and D-glucose 10, adjusted to pH 7.4 with HCl.\nIn first series of experiments using unidentified DRG neurons, outward K^+ currents were evoked by voltage steps to +60 mV, 800 ms long from a holding potentials of −90 mV, this was followed by a 1-second conditioning pre-pulse to −20 mV followed by a second pulse to +60 mV, identical to the first in the sequence. In the second series of experiments using Fast Blue-labeled bladder afferent neurons, slowly-inactivating A-type K^+ currents were isolated by subtraction of outward K^+ currents activated from a holding potential of −40 mV (on the condition of inactivation of the majority of slowly-inactivating A-type K^+ currents) from those activated from a holding potential of −120 mV (on the condition of full activation of slowly-inactivating A-type K^+ currents). A compound was added cumulatively, starting with a lower concentration. Currents were measured at the maximum (peak) and normalized to control (before addition of the compound).\nThe currents at a holding potential (HP) of −90 mV are results of the measurement of slowly-inactivating A-type K^+ currents, and the currents at an HP value of −20 mV are results of the measurement of delayed rectifier K^+ currents. […]"}
{"smiles": "C[C@](O)(C(=O)Nc1cccc2c1C(=O)c1sccc1CS2(=O)=O)C(F)(F)F", "note": "[Compound 1, (S)-(+)-N-(5,5-dioxido-10-oxo-4,10-dihydrothieno[3,2-c][1]benzothiepin-9-yl)-3,3,3-trifluoro-2-hydroxy-2-methylpropanamide]", "values": [{"measurement": "K+ current HP: −90 mV, relative value (before drug = 1)", "setting": "Compound 1 1.0 × 10^−5 mol/L, in the presence of 5 μmol/L verapamil", "value": "0.99 ± 0.02"}, {"measurement": "K+ current HP: −90 mV, relative value (before drug = 1)", "setting": "Compound 1 1.0 × 10^−5 mol/L, in the presence of 20 mmol/L tetraethylammonium", "value": "1.19 ± 0.01"}, {"measurement": "K+ current HP: −90 mV (slowly-inactivating A-type), relative value (before drug = 1)", "setting": "Compound 1 1.0 × 10^−5 mol/L", "value": "0.96 ± 0.05"}, {"measurement": "K+ current HP: −90 mV, relative value (before drug = 1)", "setting": "Compound 1 1.0 × 10^−6 mol/L, in the presence of 5 μmol/L verapamil", "value": "1.11 ± 0.03"}, {"measurement": "K+ current HP: −90 mV, relative value (before drug = 1)", "setting": "Compound 1 1.0 × 10^−6 mol/L, in the presence of 20 mmol/L tetraethylammonium", "value": "1.19 ± 0.05"}, {"measurement": "K+ current HP: −90 mV (slowly-inactivating A-type), relative value (before drug = 1)", "setting": "Compound 1 1.0 × 10^−6 mol/L", "value": "1.06 ± 0.02"}, {"measurement": "K+ current HP: −90 mV, relative value (before drug = 1)", "setting": "Compound 1 1.0 × 10^−7 mol/L, in the presence of 5 μmol/L verapamil", "value": "1.13 ± 0.02"}, {"measurement": "K+ current HP: −90 mV, relative value (before drug = 1)", "setting": "Compound 1 1.0 × 10^−7 mol/L, in the presence of 20 mmol/L tetraethylammonium", "value": "1.10 ± 0.01"}, {"measurement": "K+ current HP: −90 mV (slowly-inactivating A-type), relative value (before drug = 1)", "setting": "Compound 1 1.0 × 10^−7 mol/L", "value": "1.12 ± 0.03"}, {"measurement": "K+ current HP: −90 mV (slowly-inactivating A-type), relative value (before drug = 1)", "setting": "Compound 1 1.0 × 10^−8 mol/L", "value": "0.99 ± 0.08"}, {"measurement": "K+ current HP: −90 mV (slowly-inactivating A-type), relative value (before drug = 1)", "setting": "Compound 1 2.5 × 10^−8 mol/L", "value": "1.07 ± 0.03"}, {"measurement": "K+ current HP: −90 mV, relative value (before drug = 1)", "setting": "Compound 1 5.0 × 10^−4 mol/L, in the presence of 5 μmol/L verapamil", "value": "0.61 ± 0.05"}, {"measurement": "K+ current HP: −90 mV, relative value (before drug = 1)", "setting": "Compound 1 5.0 × 10^−4 mol/L, in the presence of 20 mmol/L tetraethylammonium", "value": "0.29 ± 0.02"}, {"measurement": "K+ current HP: −90 mV, relative value (before drug = 1)", "setting": "Compound 1 5.0 × 10^−4 mol/L, in the presence of 60 mmol/L tetraethylammonium", "value": "0.56 ± 0.05"}, {"measurement": "K+ current HP: −90 mV, relative value (before drug = 1)", "setting": "Compound 1 5.0 × 10^−5 mol/L, in the presence of 5 μmol/L verapamil", "value": "0.94 ± 0.02"}, {"measurement": "K+ current HP: −90 mV, relative value (before drug = 1)", "setting": "Compound 1 5.0 × 10^−5 mol/L, in the presence of 20 mmol/L tetraethylammonium", "value": "0.91 ± 0.04"}, {"measurement": "K+ current HP: −90 mV, relative value (before drug = 1)", "setting": "Compound 1 5.0 × 10^−5 mol/L, in the presence of 60 mmol/L tetraethylammonium", "value": "1.15 ± 0.08"}, {"measurement": "K+ current HP: −90 mV (slowly-inactivating A-type), relative value (before drug = 1)", "setting": "Compound 1 5.0 × 10^−5 mol/L", "value": "0.83 ± 0.09"}, {"measurement": "K+ current HP: −90 mV, relative value (before drug = 1)", "setting": "Compound 1 5.0 × 10^−6 mol/L, in the presence of 5 μmol/L verapamil", "value": "1.02 ± 0.03"}, {"measurement": "K+ current HP: −90 mV, relative value (before drug = 1)", "setting": "Compound 1 5.0 × 10^−6 mol/L, in the presence of 20 mmol/L tetraethylammonium", "value": "1.16 ± 0.03"}, {"measurement": "K+ current HP: −90 mV, relative value (before drug = 1)", "setting": "Compound 1 5.0 × 10^−6 mol/L, in the presence of 60 mmol/L tetraethylammonium", "value": "1.14 ± 0.05"}, {"measurement": "K+ current HP: −90 mV, relative value (before drug = 1)", "setting": "Compound 1 5.0 × 10^−7 mol/L, in the presence of 5 μmol/L verapamil", "value": "1.17 ± 0.03"}, {"measurement": "K+ current HP: −90 mV, relative value (before drug = 1)", "setting": "Compound 1 5.0 × 10^−7 mol/L, in the presence of 20 mmol/L tetraethylammonium", "value": "1.15 ± 0.04"}, {"measurement": "K+ current HP: −90 mV, relative value (before drug = 1)", "setting": "Compound 1 5.0 × 10^−7 mol/L, in the presence of 60 mmol/L tetraethylammonium", "value": "1.11 ± 0.03"}, {"measurement": "K+ current HP: −90 mV (slowly-inactivating A-type), relative value (before drug = 1)", "setting": "Compound 1 5.0 × 10^−7 mol/L", "value": "1.15 ± 0.03"}, {"measurement": "K+ current HP: −90 mV, relative value (before drug = 1)", "setting": "Compound 1 5.0 × 10^−8 mol/L, in the presence of 5 μmol/L verapamil", "value": "1.03 ± 0.02"}, {"measurement": "K+ current HP: −90 mV, relative value (before drug = 1)", "setting": "Compound 1 5.0 × 10^−8 mol/L, in the presence of 20 mmol/L tetraethylammonium", "value": "1.08 ± 0.02"}, {"measurement": "K+ current HP: −90 mV, relative value (before drug = 1)", "setting": "Compound 1 5.0 × 10^−8 mol/L, in the presence of 60 mmol/L tetraethylammonium", "value": "1.08 ± 0.02"}, {"measurement": "K+ current HP: −90 mV (slowly-inactivating A-type), relative value (before drug = 1)", "setting": "Compound 1 5.0 × 10^−8 mol/L", "value": "1.07 ± 0.02"}, {"measurement": "K+ current HP: −90 mV, relative value (before drug = 1)", "setting": "Compound 1 5.0 × 10^−9 mol/L, in the presence of 20 mmol/L tetraethylammonium", "value": "1.02 ± 0.02"}, {"measurement": "K+ current HP: −90 mV (slowly-inactivating A-type), relative value (before drug = 1)", "setting": "Compound 1 5.0 × 10^−9 mol/L", "value": "1.01 ± 0.03"}, {"measurement": "Peak compound concentration for increase of slowly-inactivating A-type K^+ currents", "setting": "unidentified DRG cells, HP −90 mV", "value": "1e-07 to 5e-07", "unit": "mol/L"}]}
